Earlier results, collected in patent US20260273014A1, “Herbal composition for metabolic syndromes and method of treatment thereof” (priority 2019, published 2026).

Details: pure mangiferin (Acosta et al. 2016)

O=c1c2cc(O)c(O)cc2oc2cc(O)c([C@@H]3O[C@H](CO)[C@@H](O)[C@H](O)[C@H]3O)c(O)c12 [mangiferin]
solubility: an issue in most biological models
